Results as given in patent US8309558B2, “Compounds for the treatment of hepatitis C” (Bristol-Myers Squibb Company, priority 2008, dated 2012).
Where two headings read alike, the source gives them in different places.

Key:
[1] = target: T1, HCV NS5B RdRp genotype 1b (Hepatitis C virus genotype 1b, UniProt Q9WMX2); assay: Standard HCV NS5B RdRp enzyme assay; format: biochemical; conditions: HCV NS5B RdRp genotype 1b, read-out: IC50
T1 construct: The protein was expressed with an 18 amino acid C-terminal truncation to enhance the solubility; made in house; host or cells: E. coli BL21(DE3), pET21a vector
How it was run: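 C-terminally truncated (18 aa) genotype 1b NS5B from E. coli, 28 nM, with 6 nM polyA template, 180 nM biotinylated oligo-dT12 primer and 3H-UTP (0.29 μM total UTP). Hepes pH 7.5 buffer with 2% DMSO; 60 min at 30° C. EDTA stop, SPA read-out; IC50 from seven concentrations by four-parameter fit.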

HCV replicon cells = assay: HCV replicon FRET / luciferase assay (96-well plates); format: cell-based; conditions: Hepatitis C virus, HCV replicon, read-out: EC50
How it was run: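 Replicon cells (with or without Renilla luciferase reporter) incubated with titrated compounds at 37 °C; Alamar blue read for cytotoxicity first. NS3 protease activity read kinetically with 20 μM EDANS/DABCYL FRET peptide in lysis reagent plus 150 mM NaCl (ex 340/em 490), or by Dual-Glo luciferase. EC50 = 50% signal reduction after protease-inhibitor background subtraction.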

T1 sequence (Q9WMX2 2420-2992): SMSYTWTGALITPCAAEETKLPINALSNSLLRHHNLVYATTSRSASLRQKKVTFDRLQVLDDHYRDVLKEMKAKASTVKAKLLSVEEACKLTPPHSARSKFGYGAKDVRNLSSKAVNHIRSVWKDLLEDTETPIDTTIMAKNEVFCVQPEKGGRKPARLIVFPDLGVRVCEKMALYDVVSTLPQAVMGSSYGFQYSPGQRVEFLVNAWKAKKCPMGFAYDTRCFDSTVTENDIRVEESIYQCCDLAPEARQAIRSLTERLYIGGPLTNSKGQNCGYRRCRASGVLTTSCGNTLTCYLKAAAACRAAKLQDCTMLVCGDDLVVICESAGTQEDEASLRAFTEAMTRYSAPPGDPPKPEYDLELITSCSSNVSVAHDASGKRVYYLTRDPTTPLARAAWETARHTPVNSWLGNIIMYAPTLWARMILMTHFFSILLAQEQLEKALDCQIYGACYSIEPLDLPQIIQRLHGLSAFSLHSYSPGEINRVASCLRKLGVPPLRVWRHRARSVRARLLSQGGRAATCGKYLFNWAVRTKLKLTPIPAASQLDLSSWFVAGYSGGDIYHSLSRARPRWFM

| Compound | IC50 ([1]; Table 1b) [nM] | EC50 (HCV replicon cells; Table 1b) [nM] | IC50 ([1]; Table 1a) [nM] | EC50 (HCV replicon cells; Table 1a) [nM] | further results |
| --- | --- | --- | --- | --- | --- |
| CNC(=O)c1c(-c2ccc(F)cc2)oc2ccc(-c3cc(C(=O)NC4(c5ncccn5)CC4)c(OC)cc3C)cc12 | < 250 | < 250 | – | – | – |
| CNC(=O)c1c(-c2ccc(F)cc2)oc2ccc(-c3cc(C(=O)NCC(C)C)ccc3OCC3CCCN3C(=O)OC(C)(C)C)cc12 (stereo not drawn) | > 10000 | 1000 to 10000 | – | – | – |
| CNC(=O)c1c(-c2ccc(F)cc2)oc2ccc(-c3ccccn3)cc12 | – | – | 1000 to 10000 | 250 to 1000 | – |
| CNC(=O)c1c(-c2ccc(F)cc2)oc2ccc(-c3cccc(C(=O)N4CC[C@H](NC(C)=O)C4)c3)cc12 [drawing 277] | – | – | 1000 to 10000 | > 10000 | – |
| CNC(=O)c1c(-c2ccc(F)cc2)oc2ccc(-c3cccc(CCC(=O)O)c3)cc12 | – | – | 1000 to 10000 | > 10000 | – |
| CNC(=O)c1c(-c2ccc(F)cc2)oc2ccc(-c3cc(C(=O)NC4(c5nnc(C)[nH]5)CC4)ccc3C)cc12 | < 250 | < 250 | – | – | – |
| CNC(=O)c1c(-c2ccc(F)cc2)oc2ccc(-c3cc(CO)ccc3Cl)cc12 | – | – | > 10000 | 1000 to 10000 | – |
| CNC(=O)c1c(-c2ccc(F)cc2)oc2ccc(-c3cc(C(=O)NC4(c5nnn[nH]5)CC4)ccc3C)cc12 | < 250 | 1000 to 10000 | – | – | – |
| CNC(=O)c1c(-c2ccc(F)cc2)oc2ccc(-c3cc(C(=O)NC4(c5cn(C)cn5)CC4)ccc3C)cc12 | – | – | – | – | IC50 ([1]; Table 1d (class symbols)): < 20 nM; EC50 (HCV replicon cells; 24 h, Table 1d (class symbols)): 1 to 250 nM |
| CNC(=O)c1c(-c2ccc(F)cc2)oc2ccc(-c3cccc(C(=O)NC(C)(C)c4cccc5ccccc45)c3)cc12 | – | – | 250 to 1000 | 250 to 1000 | – |
| CNC(=O)c1c(-c2ccc(F)cc2)oc2ccc(-c3cccc(C(=O)N4CCC(c5ccc(F)cc5)C4)c3)cc12 (stereo not drawn) | – | – | 250 to 1000 | 250 to 1000 | – |
| CNC(=O)c1c(-c2ccc(F)cc2)oc2ccc(-c3cccc(C(N)=O)c3)cc12 | – | – | 1000 to 10000 | > 3700 | – |
| CNC(=O)c1c(-c2ccc(F)cc2)oc2ccc(-c3ccc(F)cc3Cl)cc12 | – | – | > 10000 | > 10000 | – |
| CNC(=O)c1c(-c2ccc(F)cc2)oc2ccc(-c3cccc(C(=O)NS(=O)(=O)C(C)(C)C)c3)cc12 | – | – | < 250 | 1000 to 10000 | – |
| CNC(=O)c1c(-c2ccc(F)cc2)oc2cc(N(CCO)S(C)(=O)=O)c(-c3cccc(C(=O)NC4(c5ccccn5)CC4)c3)cc12 | < 250 | < 250 | – | – | – |
| CNC(=O)c1c(-c2ccc(F)cc2)oc2ccc(-c3ccc(Cl)cc3C(=O)O)cc12 | – | – | 1000 to 10000 | > 10000 | – |
| CNC(=O)c1c(-c2ccc(F)cc2)oc2ccc(-c3cccc(C(=O)NCc4ccc(F)cc4)c3)cc12 | – | – | < 250 | < 250 | – |
| CNC(=O)c1c(-c2ccc(F)cc2)oc2ccc(-c3cc(C(=O)NC4(c5ccccn5)CC4)cc(O)c3C)cc12 | < 250 | < 250 | – | – | – |
| CNC(=O)c1c(-c2ccc(F)cc2)oc2ccc(-c3cc(C(=O)NCC(C)C)ccc3OC)cc12 | – | – | < 250 | < 250 | – |
| CNC(=O)c1c(-c2ccc(F)cc2)oc2ccc(-c3ccc(C(=O)NCCc4ccc(OC)cc4)cc3)cc12 | – | – | > 10000 | > 10000 | – |

| Compound | IC50 ([1]; Table 1b) [nM] | EC50 (HCV replicon cells; Table 1b) [nM] | IC50 ([1]; Table 1a) [nM] | EC50 (HCV replicon cells; Table 1a) [nM] | further results |
| --- | --- | --- | --- | --- | --- |
| CNC(=O)c1c(-c2ccc(F)cc2)oc2ccc(-c3ccc(NC(=O)CCC(=O)O)cc3)cc12 | – | – | 1000 to 10000 | > 10000 | – |
| CNC(=O)c1c(-c2ccc(F)cc2)oc2ccc(-c3cccc(C(=O)NCC(C)C)c3)cc12 | – | – | < 250 | < 250 | – |
| CNC(=O)c1c(-c2ccc(F)cc2)oc2ccc(-c3cccc(C(=O)NC4(c5ccccn5)CC4)c3)cc12 | – | – | < 250 | < 250 | – |
| CNC(=O)c1c(-c2ccc(F)cc2)oc2ccc(-c3cc(C(=O)NC4(c5ncccn5)CC4)ccc3C)c(F)c12 [drawing 587] | < 250 | < 250 | – | – | – |
| CNC(=O)c1c(-c2ccc(F)cc2)oc2ccc(-c3cccc(C(=O)Nc4cncc(C(=O)O)c4)c3)cc12 | – | – | 250 to 1000 | > 10000 | – |
| CNC(=O)c1c(-c2ccc(F)cc2)oc2ccc(-c3cc(C(=O)NC4(c5ccccc5)CC4)ccc3F)cc12 [drawing 100] | – | – | < 250 | < 250 | – |
| CNC(=O)c1c(-c2ccc(F)cc2)oc2ccc(-c3cc(C(=O)NC4(c5ncccn5)CC4)c(C)cc3C)cc12 | < 250 | < 250 | – | – | – |
| CNC(=O)c1c(-c2ccc(F)cc2)oc2cc(N(CCO)S(C)(=O)=O)c(-c3cccc(C(=O)NC(C)(C)C)c3)cc12 | < 250 | < 250 | – | – | – |
| CNC(=O)c1c(-c2ccc(F)cc2)oc2ccc(-c3ccc(C(=O)N(C)C4CCN(C)C4)cc3)cc12 (stereo not drawn) | – | – | > 10000 | 1000 to 10000 | – |
| CNC(=O)c1ccc(-c2ccc3oc(-c4ccc(F)cc4)c(C(=O)NC)c3c2)cc1 | – | – | > 10000 | > 3700 | – |
| CNC(=O)c1c(-c2ccc(F)cc2)oc2ccc(-c3ccc(C(=O)NCCOC)cc3)cc12 | – | – | > 10000 | > 10000 | – |
| CNC(=O)c1c(-c2ccc(F)cc2)oc2cc([N+](=O)[O-])c(-c3cccc(C(=O)NC4(c5ccccc5)CC4)c3)cc12 | – | – | < 250 | < 250 | – |
| CNC(=O)c1c(-c2ccc(F)cc2)oc2ccc(-c3cccc(C(=O)Nc4ccccc4O)c3)cc12 | – | – | < 250 | < 250 | – |
| CNC(=O)c1c(-c2ccc(F)cc2)oc2cc(N(CCO)S(C)(=O)=O)c(-c3cccc(C(=O)NC(C)(C)c4ccccc4)c3)cc12 | – | – | < 250 | < 250 | – |
| CNC(=O)c1c(-c2ccc(F)cc2)oc2ccc(-c3cccc(C(=O)NC4CCCCC4)c3)cc12 | – | – | < 250 | < 250 | – |
| CNC(=O)c1c(-c2ccc(F)cc2)oc2ccc(-c3cccc(C(=O)O)c3OC)cc12 | – | – | – | – | IC50 ([1]; untitled table after Table 1b): 4750 nM; EC50 (HCV replicon cells; untitled table after Table 1b, values without asterisk): 13300 nM |
| CNC(=O)c1c(-c2ccc(F)cc2)oc2ccc(-c3cc(C(=O)NC4(c5ccccn5)CC4)ccc3Cl)cc12 [drawing 384] | < 250 | < 250 | – | – | – |
| CNC(=O)c1c(-c2ccc(F)cc2)oc2ccc(-c3cccc(C(=O)Nc4ccncc4)c3)cc12 | – | – | < 250 | < 250 | – |
| CNC(=O)c1c(-c2ccc(F)cc2)oc2ccc(-c3cc(C(=O)O)ccc3Cl)cc12 | – | – | 1000 to 10000 | > 10000 | – |
| CNC(=O)c1c(-c2ccc(F)cc2)oc2ccc(-c3cccc(C(=O)NC4(c5ccccc5)CC4)c3OC)cc12 | > 10000 | > 10000 | – | – | – |

| Compound | IC50 ([1]; Table 1b) [nM] | EC50 (HCV replicon cells; Table 1b) [nM] | IC50 ([1]; Table 1a) [nM] | EC50 (HCV replicon cells; Table 1a) [nM] | further results |
| --- | --- | --- | --- | --- | --- |
| CNC(=O)c1c(-c2ccc(F)cc2)oc2ccc(-c3cc(C(=O)NC(C)(C)CN4CCOCC4)ccc3C)cc12 | < 250 | < 250 | – | – | – |
| CCN(Cc1ccncc1)C(=O)c1ccc(-c2ccc3oc(-c4ccc(F)cc4)c(C(=O)NC)c3c2)cc1 | – | – | > 10000 | 1000 to 10000 | – |
| CNC(=O)c1c(-c2ccc(F)cc2)oc2ccc(-c3cc(C(=O)NC4(c5nnc(-c6ccncc6)[nH]5)CC4)ccc3C)cc12 | < 250 | < 250 | – | – | – |
| CNC(=O)c1c(-c2ccc(F)cc2)oc2ccc(-c3sccc3C(=O)O)cc12 | – | – | > 10000 | > 10000 | – |
| CNC(=O)c1c(-c2ccc(F)cc2)oc2ccc(-c3cc(C(=O)NC4(c5ccn(C)n5)CC4)ccc3C)cc12 | < 20 | < 250 | – | – | – |
| CNC(=O)c1c(-c2ccc(F)cc2)oc2ccc(-c3ccc(-c4ccccc4)c(C(=O)NC(C)(C)c4ccccc4)c3)cc12 | – | – | < 250 | < 250 | – |
| CNC(=O)c1c(-c2ccc(F)cc2)oc2ccc(-c3cccc(C(=O)NS(C)(=O)=O)c3)cc12 | – | – | 250 to 1000 | > 10000 | – |
| CNC(=O)c1c(-c2ccc(F)cc2)oc2ccc(-c3cccc(C(=O)Nn4c(C)nnc4C)c3)cc12 | – | – | 250 to 1000 | > 10000 | – |
| CNC(=O)c1c(-c2ccc(F)cc2)oc2ccc(-c3cc(C(=O)NC4(c5ccccn5)CC4)ccc3OCCO)cc12 | < 250 | < 250 | – | – | – |
| CNC(=O)c1c(-c2ccc(F)cc2)oc2ccc(-c3cccc(C(=O)N[C@@H](CO)C(C)(C)C)c3)cc12 | – | – | 1000 to 10000 | 1000 to 10000 | – |
| CNC(=O)c1c(-c2ccc(F)cc2)oc2ccc(-c3ccc(OC)nc3)cc12 | – | – | > 10000 | > 1230 | – |
| CCCCCNC(=O)c1cccc(-c2ccc3oc(-c4ccc(F)cc4)c(C(=O)NC)c3c2)c1 | – | – | < 250 | < 250 | – |
| CNC(=O)c1c(-c2ccc(F)cc2)oc2ccc(-c3ccc(-c4cccc(/C=C/C(=O)O)c4)c(C(=O)NCC(C)C)c3)cc12 | < 250 | 250 to 1000 | – | – | – |
| CNC(=O)c1c(-c2ccc(F)cc2)oc2ccc(-c3cc(C(=O)NCC(C)C)ccc3OCCC3CNCCO3)cc12 (stereo not drawn) [drawing 415] | < 250 | < 250 | – | – | – |
| CNC(=O)c1c(-c2ccc(F)cc2)oc2ccc(-c3cc(C(=O)NCC(C)C)ccc3OCCNC(N)=O)cc12 | < 250 | < 250 | – | – | – |
| CNC(=O)c1c(-c2ccc(F)cc2)oc2ccc(-c3cc(C(=O)NC4(c5ccccc5Cl)CC4)ccc3Cl)cc12 | 250 to 1000 | < 250 | – | – | – |
| CNC(=O)c1c(-c2ccc(F)cc2)oc2ccc(-c3cccc(C(=O)N(C)CCOC)c3)cc12 | – | – | 1000 to 10000 | 1000 to 10000 | – |
| CNC(=O)c1c(-c2ccc(F)cc2)oc2ccc(-c3cccc(C(=O)NC(C)C)c3)cc12 | – | – | < 250 | < 250 | – |
| CNC(=O)c1c(-c2ccc(F)cc2)oc2ccc(-c3ccc(Cl)c(C(=O)NC4(c5ccccn5)CC4)c3)cc12 | 250 to 1000 | > 10000 | – | – | – |
| CNC(=O)c1c(-c2ccc(F)cc2)oc2ccc(-c3cccc(C(=O)N[C@@H](CO)C(C)C)c3)cc12 [drawing 235] | – | – | 250 to 1000 | 1000 to 10000 | – |
